Patent publication US6028195A, “Piperazine derivatives and process for the preparation thereof” (Samjin Pharmaceutical Co., Ltd., priority 1996, dated 2000)
Values after ≈ are worked out from the molar mass of the structure shown. Where two headings read alike, the source gives them in different places.

Key:
Type in all cases: cell-based
SKMEL-2 (human melanoma) = test: SRB assay, in vitro antitumor effect against SKMEL-2; settings: Homo sapiens
Description: (§1) In vitro antitumor effect against human tumor cell lines.
(§2) b. 5×10^3 ~2×10^4 cells were added into each well of 96-well plate and cultured in 5% CO2 incubator, at 37° C., for 24 hours.
(§3) c. Each sample drug was dissolved in a little DMSO and diluted with the used medium to a prescribed concentration for experiments, wherein the final concentration of DMSO was controlled below 0.5%.
(§4) d. Medium of each well cultured for 24 hours as above b. was removed by aspiration. Each 200 μl of drug samples prepared in c. was added into each well and the wells were cultured for 48 hours. Tz(time zero) plates were collected at the point of time drugs were added.
(§5) e. According to the SRB assay method, cell fixing with TCA, staining with 0.4% SRB solution, washing with 1% acetic acid and elution of dye with 10 mM Tris solution were carried out on Tz plates and culture-ended plates, and then, OD values were measured at 520 nm.
(§6) a. Time zero(Tz) value was determined with measuring the SRB protein value at the point of time drugs were added.
(§7) b. Control value(C) was determined with the OD value of an well untreated with drug.
(§8) c. Drug-treated test value(T) was determined with the OD value of drug-treated well.
(§9) d. Effects of drugs were estimated with growth stimulation, net growth inhibition, net killing etc. calculated from Tz, C and T.
(§10) e. If T≥Tz, cellular response function was calculated by 100×(T-Tz)/(C-Tz), and if T<Tz, by 100×(T-Tz)/Tz.

XF 498 (human CNS) = test: SRB assay, in vitro antitumor effect against XF 498; settings: Homo sapiens, XF498; XF-498, 48 hours; read-out: ED50 (the source's name)
Description: as §1, §2, §3, §4, §5, §6, §7, §8, §9, §10

SKOV-3 (human ovarian) = test: SRB assay, in vitro antitumor effect against SKOV-3; settings: Homo sapiens; SK-OV-3, 48 hours; read-out: ED50 (the source's name)
Description: as §1, §2, §3, §4, §5, §6, §7, §8, §9, §10

HCT-15 (human colon) = test: SRB assay, in vitro antitumor effect against HCT-15; settings: Homo sapiens; HCT 15, 48 hours; read-out: ED50 (the source's name)
Description: as §1, §2, §3, §4, §5, §6, §7, §8, §9, §10

[1] = tested on: A549 (human non-small lung cell); test: SRB assay, in vitro antitumor effect against A549; settings: Homo sapiens; A549, 48 hours; read-out: ED50 (the source's name)
Description: as §1, §2, §3, §4, §5, §6, §7, §8, §9, §10

[2] = SK-MEL-2, 48 hours, read-out: ED50 (the source's name)

Row | SMILES | IC50 (SKMEL-2 (human melanoma); [2]) | IC50 (XF 498 (human CNS)) | IC50 (SKOV-3 (human ovarian)) | IC50 (HCT-15 (human colon)) | IC50 [1] | IC50 (SKMEL-2 (human melanoma); SK-MEL-2, 48 h, read-out: ED50)
1 | COc1nc2ccccc2cc1NC(=S)N1CCN(c2cc(Cl)cc(Cl)c2)CC1 [Example 112, 1-[(2-Methoxyquinolin-3-yl)aminothiocarbonyl]-4-(3,5-dichlorophenyl)piperazine] | 0.22 µg/mL (≈ 0.492 µM) | 2.07 µg/mL (≈ 4.63 µM) | 6.43 µg/mL (≈ 14.4 µM) | 0.61 µg/mL (≈ 1.36 µM) | 0.56 µg/mL (≈ 1.25 µM) | –
2 | COc1cc(OC)cc(N2CCN(C(=O)N(C)c3cc(C)c(C)nc3OC)CC2)c1 [Example 132, 1-[N-(5,6-Dimethyl-2-methoxypyridin-3-yl)-N-methylaminocarbonyl]-4-(3,5-dimethoxyphenyl)piperazine] | 0.03 µg/mL (≈ 0.0724 µM) | 0.04 µg/mL (≈ 0.0965 µM) | 0.01 µg/mL (≈ 0.0241 µM) | 0.04 µg/mL (≈ 0.0965 µM) | 0.03 µg/mL (≈ 0.0724 µM) | –
3 | CCN(C(=O)N1CCN(c2cc(OC)cc(OC)c2)CC1)c1cc(C)c(C)nc1OC [Example 133, 1-[N-Ethyl-N-(5,6-dimethyl-2-methoxypyridin-3-yl)aminocarbonyl]-4-(3,5-dimethoxyphenyl)piperazine] | 0.53 µg/mL (≈ 1.24 µM) | 0.61 µg/mL (≈ 1.42 µM) | 0.94 µg/mL (≈ 2.19 µM) | 0.57 µg/mL (≈ 1.33 µM) | 0.57 µg/mL (≈ 1.33 µM) | –
4 | COc1cc(OC)cc(N2CCN(C(=O)N(c3cc(C)c(C)nc3OC)C(C)C)CC2)c1 [Example 134, 1-[N-Isopropyl-N-(5,6-dimethyl-2-methoxypyridin-3-yl)aminocarbonyl]-4-(3,5-dimethoxyphenyl)piperazine] | 0.0086 µg/mL (≈ 0.0194 µM) | 0.002 µg/mL (≈ 0.00452 µM) | 0.0091 µg/mL (≈ 0.0206 µM) | 0.0065 µg/mL (≈ 0.0147 µM) | 0.0009 µg/mL (≈ 0.00203 µM) | –
5 | COc1ccc(C)c(N2CCN(C(=O)N(C)c3cc(C)c(C)nc3OC)CC2)c1 [Example 140, 1-[N-(5,6-Dimethyl-2-methoxypyridin-3-yl)-N-methylaminocarbonyl]-4-(5-methoxy-2-methylphenyl)piperazine] | 0.56 µg/mL (≈ 1.41 µM) | 0.54 µg/mL (≈ 1.36 µM) | 0.47 µg/mL (≈ 1.18 µM) | 0.49 µg/mL (≈ 1.23 µM) | 0.33 µg/mL (≈ 0.828 µM) | –
6 | COc1ccc(C)c(N2CCN(C(=O)N(Cc3ccccc3)c3cc(C)c(C)nc3OC)CC2)c1 [Example 142, 1-[N-Benzyl-N-(5,6-dimethyl-2-methoxypyridin-3-yl)aminocarbonyl]-4-(5-methoxy-2-methylphenyl)piperazine] | 0.021 µg/mL (≈ 0.0442 µM) | 0.026 µg/mL (≈ 0.0548 µM) | 0.011 µg/mL (≈ 0.0232 µM) | 0.017 µg/mL (≈ 0.0358 µM) | 0.015 µg/mL (≈ 0.0316 µM) | –
7 | CCc1cc(N(C)C(=O)N2CCN(c3cc(OC)cc(OC)c3)CC2)c(OC)nc1C [Example 143, 1-[N-(5-Ethyl-2-methoxy-6-methylpyridin-3-yl)-N-methylaminocarbonyl]-4-(3,5-dimethoxyphenyl)piperazine] | 0.0121 µg/mL (≈ 0.0282 µM) | 0.0009 µg/mL (≈ 0.0021 µM) | 0.0095 µg/mL (≈ 0.0222 µM) | 0.0108 µg/mL (≈ 0.0252 µM) | 0.0004 µg/mL (≈ 0.000933 µM) | –
8 | CCc1nc(OC)c(N(C)C(=O)N2CCN(c3cc(OC)cc(OC)c3)CC2)cc1C [Example 147, 1-[N-(6-Ethyl-2-methoxy-5-methylpyridin-3-yl)-N-methylaminocarbonyl]-4-(3,5-dimethoxyphenyl)piperazine] | – | 0.466 µg/mL (≈ 1.09 µM) | 0.092 µg/mL (≈ 0.215 µM) | 0.18 µg/mL (≈ 0.42 µM) | 0.031 µg/mL (≈ 0.0723 µM) | 0.024 µg/mL (≈ 0.056 µM)

Now from value to compound, other results behind:

Row | IC50 (SKMEL-2 (human melanoma); [2]) | IC50 (XF 498 (human CNS)) | IC50 (SKOV-3 (human ovarian)) | IC50 (HCT-15 (human colon)) | IC50 [1] | SMILES | IC50 (SKMEL-2 (human melanoma); SK-MEL-2, 48 h, read-out: ED50)
9 | 0.03 µg/mL (≈ 0.0678 µM) | 0.05 µg/mL (≈ 0.113 µM) | 0.07 µg/mL (≈ 0.158 µM) | 0.05 µg/mL (≈ 0.113 µM) | 0.01 µg/mL (≈ 0.0226 µM) | CCCc1nc(OC)c(N(C)C(=O)N2CCN(c3cc(OC)cc(OC)c3)CC2)cc1C [Example 148, 1-[N-(2-Methoxy-5-methyl-6-propylpyridin-3-yl)-N-methylaminocarbonyl]-4-(3,5-dimethoxyphenyl)piperazine] | –
10 | 0.007 µg/mL (≈ 0.0171 µM) | 0.007 µg/mL (≈ 0.0171 µM) | 0.008 µg/mL (≈ 0.0195 µM) | 0.037 µg/mL (≈ 0.0901 µM) | 0.004 µg/mL (≈ 0.00974 µM) | COc1nc(C)c(C(C)=O)cc1N(C)C(=O)N1CCN(c2cc(C)cc(C)c2)CC1 [Example 151, 1-[N-(5-Acetyl-2-methoxy-6-methylpyridin-3-yl)-N-methylaminocarbonyl]-4-(3,5-dimethylphenyl)piperazine] | –
11 | 0.2 µg/mL (≈ 0.45 µM) | 0.26 µg/mL (≈ 0.585 µM) | 0.37 µg/mL (≈ 0.832 µM) | 0.44 µg/mL (≈ 0.99 µM) | 0.18 µg/mL (≈ 0.405 µM) | COc1cc(OC)cc(N2CCN(C(=O)N(C)c3cc(C(C)O)c(C)nc3OC)CC2)c1 (stereo not drawn) [Example 152, 1-{N-[5-(1-Hydroxyethyl)-2-methoxy-6-methylpyridin-3-yl]-N-methylaminocarbonyl}-4-(3,5-dimethoxyphenyl)piperazine] | –
12 | 0.09 µg/mL (≈ 0.204 µM) | 0.06 µg/mL (≈ 0.136 µM) | 0.1 µg/mL (≈ 0.227 µM) | 0.07 µg/mL (≈ 0.159 µM) | 0.06 µg/mL (≈ 0.136 µM) | CCC(C)(O)c1cc(N(C)C(=O)N2CCN(c3cc(C)cc(C)c3)CC2)c(OC)nc1C (stereo not drawn) [Example 156, 1-{N-[5-(1-Hydroxy-1-methylpropyl)-2-methoxy-6-methylpyridin-3-yl]-N-methylaminocarbonyl}-4-(3,5-dimethylphenyl)piperazine] | –
